Among the data in patent US10449208B2, “Antiviral prodrugs of tenofovir” (Merck Sharp & Dohme Corp., priority 2016, dated 2019) are IC50 values, retold here.

Like-named read-outs stand apart in the source and are kept apart here.

The assay has as its system HIV-1 (H9/IIIB strain). Put plainly: Multiple round HIV-1 infection assay (Viking assay) in MT4-GFP cells. The following applies: MT4-GFP cells infected with HIV-1 H9/IIIB, inhibition of reproductive ratio R0. The assay is classed as cell-based. On the procedure: Assessing Antiviral Potency in a Multiple Round HIV-1 Infection Assay (Viking Assay)
The antiviral activity of the tenofovir prodrugs of the Examples herein was assessed in an assay that measures the rate of replication of HIV in cell culture, termed the Viking assay (Viral KINetics in Green cells) and performed as follows. HIV-1 replication was monitored using MT4-gag-GFP clone D3 (hereafter designated MT4-GFP), which are MT-4 cells modified to harbor a GFP reporter gene, the expression of which is dependent on the HIV-1 expressed proteins tat and rev. Productive infection of an MT4-GFP cell with HIV-1 results in GFP expression approximately 24 h post-infection. MT4-GFP cells were maintained at 37° C./5% CO2/90% relative humidity in RPMI 1640 supplemented with 10% fetal bovine serum, 100 μ/ml penicillin/streptomycin, and 400 μg/ml G418 to maintain the reporter gene. For infections, MT4-GFP cells were placed in the same medium lacking G418 and infected overnight with HIV-1 (H9/IIIB strain) virus at an approximate multiplicity of infection of 0.01 in the same incubation conditions. Cells were then washed and re-suspended in either RPMI 1640 supplemented with 10% or 50% normal human serum (NFIS) at 1.6×10^5 cells/mL (10% NHS or 50% NHS, respectively). Compound plates were prepared by dispensing compounds dissolved in DMSO into wells of 384 well poly-D -lysine-coated plates (0.2 μl/well) using an ECHO acoustic dispenser. Each compound was tested in a 10-point serial 3-fold dilution (typical final concentrations: 8.4 μM-0.42 nM). Controls included no inhibitor (DMSO only) and a combination of three antiviral agents (efavirenz, indinavir, an in-house integrase strand transfer inhibitor at final concentrations of 4 μM each). Cells were added (50 μL/well) to compound plates and the infected cells were maintained at 37° C./5% CO2/90% relative humidity.
infected cells were quantified at two time points, ˜48 h and ˜72 h post -infection, by counting the number of green cells in each well using an Acumen eX3 scanner. The increase in the number of green cells over ˜24 h period gives the reproductive ratio, R0, which is typically 5-15 and has been shown experimentally to be in logarithmic phase (data not shown). Inhibition of R0 is calculated for each well, and IC50s determined by non-linear 4-parameter curve fitting.

Setting [1] is: Human immunodeficiency virus 1, IIIB, 10% normal human serum, read-out: Viking, IC50 (10% NHS).
The mark [2] stands for this setting: Human immunodeficiency virus 1, IIIB, 50% normal human serum, read-out: Viking, IC50 (50% NHS).
Where [3] appears, read: 10% normal human serum, read-out: Viking, IC50 (10% NHS).
The mark [4] stands for this setting: 50% normal human serum, read-out: Viking, IC50 (50% NHS).

With `C[C@H](Cn1cnc2c(N)ncnc21)OCP(=O)(NC(C)(C)C(=O)OC1CCCC1)O[C@@H](C)C(=O)OC1CCCC1` (single isomer, unassigned) [Example 5A], the IC50 came out at 5.71 nM under setting [1] and 45 nM under setting [2].

With `C[C@H](Cn1cnc2c(N)ncnc21)OCP(=O)(NC(C)(C)C(=O)OC1CCCC1)O[C@@H](C)C(=O)OC1CCCC1` (single isomer, unassigned) [Example 5B], the IC50 is, setting by setting: under setting [3], 5.73 nM; under setting [4], 23.4 nM.

As to `CCCCCCOC(=O)C(C)(C)NP(=O)(CO[C@H](C)Cn1cnc2c(N)ncnc21)O[C@H](C)C(=O)OC(C)C` (single isomer, unassigned) [Example 9A], the IC50 amounted to 4.2 nM under setting [3] and 26.1 nM under setting [4].

With `CCCCCOC(=O)[C@H](C)OP(=O)(CO[C@H](C)Cn1cnc2c(N)ncnc21)NC(C)(C)C(=O)OC(C)C` (single isomer, unassigned) [Example 10A], the IC50 is, setting by setting: under setting [3], 26.3 nM; under setting [4], 142 nM.

On to `CCCCCOC(=O)[C@H](C)OP(=O)(CO[C@H](C)Cn1cnc2c(N)ncnc21)NC(C)(C)C(=O)OC(C)C` (single isomer, unassigned) [Example 10B], for which the IC50 under setting [3] came to 85.6 nM and the IC50 under setting [4] was determined as 357 nM.

For the molecule `CCCCOC(=O)C(C)(C)NP(=O)(CO[C@H](C)Cn1cnc2c(N)ncnc21)O[C@@H](C)C(=O)OC1CCCC1` (single isomer, unassigned) [Example 11A], the IC50 is 24.8 nM under setting [3] and 66.2 nM under setting [4].

In the case of `CCCCOC(=O)C(C)(C)NP(=O)(CO[C@H](C)Cn1cnc2c(N)ncnc21)O[C@@H](C)C(=O)OC1CCCC1` (single isomer, unassigned) [Example 11B], the IC50 amounted to 3.98 nM under setting [3] and 22.8 nM under setting [4].

`CC(C)OC(=O)[C@H](C)OP(=O)(CO[C@H](C)Cn1cnc2c(N)ncnc21)NC(C)(C)C(=O)OC1CCCCC1` (single isomer, unassigned) [Example 12B]: the IC50 turned out to be 6.07 nM under setting [3] and 13.5 nM under setting [4].

With `CC(C)OC(=O)COP(=O)(CO[C@H](C)Cn1cnc2c(N)ncnc21)NC(C)(C)C(=O)OC1CCCC1` (single isomer, unassigned) [Example 14A], the IC50 worked out at 10 nM under setting [1] and 23.5 nM under setting [2].

`CC(C)OC(=O)COP(=O)(CO[C@H](C)Cn1cnc2c(N)ncnc21)NC(C)(C)C(=O)OC1CCCC1` (single isomer, unassigned) [Example 14B]: the IC50 runs as follows: under setting [3], 5.4 nM; under setting [4], 36.2 nM.

For `CC(C)OC(=O)COP(=O)(CO[C@H](C)Cn1cnc2c(N)ncnc21)NC(C)(C)C(=O)OC1CCCCC1` (single isomer, unassigned) [Example 15A], the IC50 was 9.98 nM under setting [1] and 28.5 nM under setting [2].

On to `CC(C)OC(=O)COP(=O)(CO[C@H](C)Cn1cnc2c(N)ncnc21)NC(C)(C)C(=O)OC1CCCCC1` (single isomer, unassigned) [Example 15B], for which the IC50 was determined as 10.3 nM under setting [3] and 44.2 nM under setting [4].

As for `CC(C)OC(=O)[C@H](C)OP(=O)(CO[C@H](C)Cn1cnc2c(N)ncnc21)NC(C)(C)C(=O)OC1CCC1` (single isomer, unassigned) [Example 16A], the IC50 is, setting by setting: under setting [1], 2.61 nM; under setting [4], 7.5 nM.

Consider `CC(C)OC(=O)[C@H](C)OP(=O)(CO[C@H](C)Cn1cnc2c(N)ncnc21)NC(C)(C)C(=O)OC1CCC1` (single isomer, unassigned) [Example 16B], for which the IC50 is, setting by setting: under setting [3], 4.75 nM; under setting [4], 17.1 nM.

As for `CC(C)OC(=O)COP(=O)(CO[C@H](C)Cn1cnc2c(N)ncnc21)NC(C)(C)C(=O)OC1CCC1` (single isomer, unassigned) [Example 17A], the half-maximal inhibitory concentration (IC50) under setting [1] was determined as 6.39 nM and the IC50 under setting [2] is 12.7 nM.

Turning to `CCCCCOC(=O)C(C)(C)NP(=O)(CO[C@H](C)Cn1cnc2c(N)ncnc21)O[C@@H](C)C(=O)OC1CCCC1` (single isomer, unassigned) [Example 19A], the IC50 is 14 nM under setting [3] and 49.7 nM under setting [4].

As to `CCOC(=O)C(C)(C)NP(=O)(CO[C@H](C)Cn1cnc2c(N)ncnc21)OCC(=O)OC(C)C` (stereo partly drawn) [Example 27, Ethyl 2-((((((R)-1-(6-amino-9H-purin-9-yl)propan-2-yl)oxy)methyl)(2-isopropoxy-2-oxoethoxy)phosphoryl)amino)-2-methylpropanoate], the IC50 runs as follows: under setting [1], 10.1 nM; under setting [2], 13.3 nM.

Consider `CCOC(=O)C(C)(C)NP(=O)(CO[C@H](C)Cn1cnc2c(N)ncnc21)O[C@@H](C)C(=O)OC(C)C` (stereo partly drawn) [Example 28, Ethyl 2-((((((R)-1-(6-amino-9H-purin-9-yl)propan-2-yl)oxy)methyl)(((S)-1-isopropoxy-1-oxopropan-2-yl)oxy)phosphoryl)amino)-2-methylpropanoate], for which the IC50 was 6.38 nM under setting [1] and 19.7 nM under setting [2].

For `CCOC(=O)C(C)(C)NP(=O)(CO[C@H](C)Cn1cnc2c(N)ncnc21)O[C@H](C)C(=O)OC(C)C` (stereo partly drawn) [Example 29, Ethyl 2-((((((R)-1-(6-amino-9H-purin-9-yl)propan-2-yl)oxy)methyl)(((R)-1-isopropoxy-1-oxopropan-2-yl)oxy)phosphoryl)amino)-2-methylpropanoate], the IC50 reads like this: under setting [1], 9.22 nM; under setting [2], 17.2 nM.

As to `CC(C)COC(=O)C(C)(C)NP(=O)(CO[C@H](C)Cn1cnc2c(N)ncnc21)OCC(=O)OC(C)C` (stereo partly drawn) [Example 30, Isobutyl 2-((((((R)-1-(6-amino-9H-purin-9-yl)propan-2-yl)oxy)methyl)(2-isopropoxy-2-oxoethoxy)phosphoryl)amino)-2-methylpropanoate], the concentration for half-maximal inhibition (IC50) was 4.38 nM under setting [1] and 12 nM under setting [2].

Take `CC(C)OC(=O)[C@H](Cc1ccccc1)OP(=O)(CO[C@H](C)Cn1cnc2c(N)ncnc21)NC(C)(C)C(=O)OC(C)C` (stereo partly drawn) [Example 32, Isopropyl 2-((((((R)-1-(6-amino-9H-purin-9-yl)propan-2-yl)oxy)methyl)(((S)-1-isopropoxy-1-oxo-3-phenylpropan-2-yl)oxy)phosphoryl)amino)-2-methylpropanoate]: the IC50 runs as follows: under setting [1], 3.34 nM; under setting [2], 23.2 nM.

As for `CCCCCCOC(=O)C(C)(C)NP(=O)(CO[C@H](C)Cn1cnc2c(N)ncnc21)O[C@@H](C)C(=O)OC1CCCC1` (stereo partly drawn) [Example 34, Hexyl 2-((((((R)-1-(6-amino-9H-purin-9-yl)propan-2-yl)oxy)methyl)(((S)-1-(cyclopentyloxy)-1-oxopropan-2-yl)oxy)phosphoryl)amino)-2-methylpropanoate], the IC50 under setting [1] was 3.57 nM and the IC50 under setting [2] came out at 12.9 nM.

Take `CCCCCCOC(=O)C(C)(C)NP(=O)(CO[C@H](C)Cn1cnc2c(N)ncnc21)OCC(=O)OC1CCCC1` (stereo partly shown) [Example 35]: the IC50 came to 3.83 nM under setting [1] and 14 nM under setting [2].

Consider `CC(C)COC(=O)C(C)(C)NP(=O)(CO[C@H](C)Cn1cnc2c(N)ncnc21)O[C@@H](C)C(=O)OC1CCCC1` (stereo partly drawn) [Example 37, Isobutyl 2-((((((R)-1-(6-amino-9H-purin-9-yl)propan-2-yl)oxy)methyl)(((S)-1-(cyclopentyloxy)-1-oxopropan-2-yl)oxy)phosphoryl)amino)-2-methylpropanoate], for which the IC50 under setting [1] turned out to be 10.3 nM and the IC50 under setting [2] stood at 63.1 nM.

In the case of `CC(C)OC(=O)[C@H](C)OP(=O)(CO[C@H](C)Cn1cnc2c(N)ncnc21)NC(C)(C)C(=O)OC1CCCC1` (stereo partly drawn) [Example 39, Cyclopentyl 2-((((((R)-1-(6-amino-9H-purin-9-yl)propan-2-yl)oxy)methyl)(((S)-1-isopropoxy-1-oxopropan-2-yl)oxy)phosphoryl)amino)-2-methylpropanoate], the IC50 under setting [1] worked out at 3.43 nM and the IC50 under setting [2] came to 12.6 nM.

As to `CCOC(=O)[C@H](C)OP(=O)(CO[C@H](C)Cn1cnc2c(N)ncnc21)NC(C)(C)C(=O)OC(C)C` (stereo partly drawn) [Example 40, Isopropyl 2-((((((R)-1-(6-amino-9H-purin-9-yl)propan-2-yl)oxy)methyl)(((S)-1-ethoxy-1-oxopropan-2-yl)oxy)phosphoryl)amino)-2-methylpropanoate], the IC50 worked out at 19.2 nM under setting [1] and 58.7 nM under setting [2].

What is called IC50 is the concentration that inhibits the measured activity by half.
